Assay results taken from patent US11357850B2, “Methods for treating breast cancer using INOS-inhibitory compositions” (The Methodist Hospital, priority 2014, dated 2022).
Where two headings read alike, the source gives them in different places.

What was measured:
[1] = system: MDA-MB-231; experiment: Cell proliferation assay (WST-1), calcium channel antagonists; type: cell-based, human; details: 0, 1, 5, and 10 μM for 72 hrs
Method: (§1) Cell Proliferation Assay In Vitro. Mesenchymal-like, TNBC cell lines, MDA-MB-231 and SUM159, were grown in DMEM supplemented with 10% fetal bovine serum and 1% antibiotic-antimycotic. Stock solutions of various calcium-channel antagonists (amlodipine, nicardipine, nifedipine, felodipine, isradipine, diltiazem, verapamil, lacidipine, nisoldipine, nitrendipine, nivaldipine, azelnidipine, barnidipine, benidipine, efonidipine, lercanidipine, pranidipine, and manidipine) were prepared in DMSO. Effects on cell proliferation were assayed with the WST-1 method. Briefly, 1,000 (SUM159) and 2,000 (MDA-MB-231) cells/well were plated in a 96-well plate and treated with different concentrations (0, 1, 5, and 10 μM) of calcium channel antagonists for 72 hrs. Proliferation rate was determined by adding premixed WST-1 reagent. After incubation at 37° C. for three hrs, absorbance was read at 450 nm (reference wavelength 690 nm). Results were normalized against vehicle (100%). The antagonists were considered active when proliferation was decreased in ≥30%.

[2] = system: SUM159; experiment: as above; type: cell-based, human; details: 0, 1, 5, and 10 μM for 72 hrs
Method: as §1

[3] = system: SUM159 xenografts; experiment: SUM159 xenografts treated with L-NMMA, docetaxel, combination; type: in vivo, mice
Method: (§2) Animal Studies. Female SCID Beige mice (4-5 weeks old) (Harlan Laboratories, Houston, Tex., USA) were housed under standard laboratory conditions (22° C.; 12 hrs/12 hrs light/dark cycle and free access to food and water). Either MDA-MB-231 or SUM159 cells (3×10^6) were injected in the right mammary fat pad. Once the tumors reached 150-200 mm^3, the mice were randomized into different groups as follows (n=10/group): 1) Vehicle (saline, i.p.), 2) L-NMMA (either 80 mg/kg or 200 mg/kg, i.p., daily), 3) Docetaxel (20 mg/kg), 4) Combo (L-NMMA and docetaxel).
(§3) Self-renewal and tumor-initiating capacity was determined by MSFE and limiting-dilution assays, respectively, in single cells isolated from tumor tissue. Briefly, breast tumor tissue was minced, digested in DMEM:F12 medium with 100 U/mL of collagenase type 3 (Worthington, Lakewood, N.J., USA) and 0.8 U/mL of dispase (Gibco, Carlsbad, Calif., USA) at 37° C. for 45 min. MSFE was assayed in isolated single cells as stated above. The limiting dilution assay (LDA) was performed injecting either […] isolated cells from tumor tissue in the mammary fat pad of SCID Beige mice (n=12/group). Flow cytometric analysis of CD44^+/CD24^−/low cell population was assayed using published methods.
To answer this question, daily injections of 80 mg/kg L-NMMA were first given to SUM159 xenograft-bearing mice alone or in combination with docetaxel (20 mg/kg). […] The inventor next analyzed the impact on CSC self-renewal by the MSFE assay.

[4] = system: MDA-MB-231 xenografts; experiment: MDA-MB-231 xenografts treated with L-NMMA, docetaxel, combination; type: in vivo, mice
Method: as §2, §3
The role of L-NMMA was then investigated, either alone or in combination with docetaxel in a different TNBC mouse model. Docetaxel (20 mg/kg at days 0 and 21) and 200 mg/kg L-NMMA (daily) were given to MDA-MB-231 xenograft-bearing mice for 31 days.

[5] = system: unresectable stage III or IV advanced melanoma; details: cited from earlier work
[6] = system: advanced melanoma; details: 2 mg/kg, 173 patients; cited from earlier work
[7] = system: ipilimumab-refractory metastatic melanoma; details: cited from earlier work
[8] = system: metastatic PD-L1-positive NSCLC; details: cited from earlier work
[9] = system: recurrent or metastatic head and neck squamous cell carcinoma; details: cited from earlier work
[10] = system: advanced, PD-L1-positive TNBC; details: cited from earlier work
[11] = system: MCF10A; experiment: Western blot of PERK/eIF2α/ATF4/ATF3 axis with recombinant TGFβ1; type: cell-based; details: 10 ng/mL for 24 hrs
Description: FIG. 3A, FIG. 3B, FIG. 3C, FIG. 3D, FIG. 3E, FIG. 3F, FIG. 3G, FIG. 311, FIG. 3I, and FIG. 3J show iNOS knockdown impairs tumorigenicity and EMT by a dual impact on HIF1α and endoplasmic reticulum (ER) stress/TGFβ/AFT4/ATF3 crosstalk. Proliferation (FIG. 3A), migration (FIG. 3B), and self-renewal capacity (primary and secondary mammospheres) (FIG. 3C) in MDA-MB-231 cells transfected with two different NOS2-directed shRNAs (shRNA1, shRNA2) compared with empty vector (shRNA-EV). […] Selective iNOS inhibition reduced hypoxia (HIF1α), ER stress markers (IRE1α, ATF4) (FIG. 3F), phospho-Smad2/3, Smad2/3 and mature TGFβ protein levels in MDA-MB-231 and SUM159 cells (FIG. 3G). FIG. 3H: Recombinant TGFβ1 (10 ng/mL for 24 hrs) activates the PERK/eIF2α/ATF4/ATF3 axis in MCF10A. […] FIG. 3J: Selective iNOS inhibition is postulated to impair EMT and tumor cell migration by an impact on HIF1α, ER stress (IRE1α/XBP1) and the crosstalk between ATF4, ATF3 and TGFβ. Results were normalized to empty vector. Data are presented as mean±SEM. ****p<0.0001, ***p<0.001, **p<0.01. One-way ANOVA and Bonferroni's post-hoc test;
Western Blot. Cells were cultured at a density of 2.5×10^5 cells/well in 6-well plates with or without iNOS inhibitors for 96 hrs. Cells were resuspended in 1× lysis buffer (Cell Signaling Technology, Inc.) and 1× protease/phosphatase inhibitor cocktail (Thermo Scientific). […]

For `CC1=C(C(=O)OC(C)C)C(c2cccc([N+](=O)[O-])c2)C(C(=O)OC2CN(C(c3ccccc3)c3ccccc3)C2)=C(N)N1` (centres unmarked) [azelnidipine], the proliferation [1] was “dose-dependent decrease in proliferation” and the proliferation [2] was “dose-dependent decrease in proliferation”.

With `CC(=O)O[C@@]12CO[C@@H]1C[C@H](O)[C@@]1(C)C(=O)[C@H](O)C3=C(C)[C@@H](OC(=O)[C@H](O)[C@@H](NC(=O)OC(C)(C)C)c4ccccc4)C[C@@](O)([C@@H](OC(=O)c4ccccc4)[C@H]21)C3(C)C` [docetaxel] the “limiting dilution assay, tumors” value ([3]; 7 weeks with 5×10^4 cells, vehicle 12/12) was 12/12, the “CD44+/CD24−/low population (flow cytometry)” value ([3]; mouse, in vivo) was “slight increase” and the “primary and secondary MSFE of single tumor cells isolated from tumor tissue” value ([3]; mouse, in vivo) was “dramatic increase”. The “limiting dilution assay, tumors” value ([3]; week nine with 2×10^4 cells, vehicle 7/12) was 3/12, the “limiting dilution assay, tumors” value ([4]; 5 weeks with 5×10^4 cells, vehicle 12/12) was 8/12 and the “limiting dilution assay, tumors” value ([4]; after six weeks, vehicle 6/12) was 8/12. The “apoptosis levels (cleaved caspase-3)” value ([4]; relative to the combination group) was “higher apoptosis levels”.

With `CCOC(=O)C1=C(C)NC(C)=C(C(=O)OCC)C1c1ccccc1/C=C/C(=O)OC(C)(C)C` [lacidipine] the proliferation [1] was “dose-dependent decrease in proliferation” and the proliferation [2] was “dose-dependent decrease in proliferation”.

With `COC(=O)C1=C(C#N)NC(C)=C(C(=O)OC(C)C)C1c1cccc([N+](=O)[O-])c1` (centres unmarked) [nivaldipine] the proliferation [1] was “dose-dependent decrease in proliferation” and the proliferation [2] was “dose-dependent decrease in proliferation”.

For “ipilimumab: comparator in the KEYNOTE-006 melanoma study”, the “estimated 6-month PFS rate” value ([5]; ipilimumab 3 mg/kg Q3W, four cycles) is listed as 26.5%, the “estimated 12-month survival rate” value ([5]; ipilimumab 3 mg/kg Q3W) is listed as 58.2% and the “rate of Grade 3-5 treatment-related AEs” value ([5]; ipilimumab 3 mg/kg Q3W) is listed as 19.9%. For the same molecule, the response rate ([5]; ipilimumab 3 mg/kg Q3W) was 11.9%.

For “pembrolizumab: humanized monoclonal antibody of the IgG4/κ isotype blocking the interaction between PD-1 and its ligands”, the overall response rate [6] is given as 24%, the “6-month PFS rate” value ([7]; 2 mg/kg Q3W) is given as 34% and the “Grade 3-4 treatment-related fatigue, patients” value ([7]; 2 mg/kg, 178 patients) is given as 1%. The “Grade 3-4 generalized edema and myalgia (each), patients” value ([7]; 2 mg/kg) was 1%, the “Grade 3-4 treatment-related adverse events, patients” value ([7]; 2 mg/kg) was 11% and the “6-month PFS rate” value ([7]; 10 mg/kg Q3W) was 38%. For the same molecule, the “Grade 3-4 treatment-related fatigue, patients” value ([7]; 10 mg/kg, 179 patients) was < 1%, the “Grade 3-4 hypopituitarism, colitis, diarrhea, decreased appetite, hyponatremia, and pneumonitis (each), patients” value ([7]; 10 mg/kg) was 1% and the “Grade 3-4 treatment-related adverse events, patients” value ([7]; 10 mg/kg) was 14%. For the same molecule, the “estimated 6-month PFS rate” value ([5]; pembrolizumab 10 mg/kg Q2W) was 47.3%, the “estimated 6-month PFS rate” value ([5]; pembrolizumab 10 mg/kg Q3W) was 46.4% and the “estimated 12-month survival rate” value ([5]; pembrolizumab Q2W) was 74.1%. For the same molecule, the “rate of Grade 3-5 treatment-related AEs” value ([5]; pembrolizumab Q2W) was 13.3%, the response rate ([5]; pembrolizumab Q2W) was 33.7% and the “estimated 12-month survival rate” value ([5]; pembrolizumab Q3W) was 68.4%. The “rate of Grade 3-5 treatment-related AEs” value ([5]; pembrolizumab Q3W) was 10.1%, the response rate ([5]; pembrolizumab Q3W) was 32.9% and the “patients having a DoR of ≥6 months” value ([8]; 11 patients) was 44%. For the same molecule, the “responses ongoing at the time of the analysis, patients” value ([8]; 21 of 25) was 85%, the “objective response rate (ORR)” value ([8]; 61 patients with PD-L1 strongly positive tumors, all partial responses) was 41% and the ORR ([9]; 10 mg/kg Q2W or 200 mg Q3W, n=174) was 16%. For the same molecule, the “responding patients with responses of 6 months or longer” value ([9]; 23 of 28) was 82%, the “SAEs, patients” value ([9]; in vivo) was 45% and the “dyspnea, patients” value ([9]; in vivo) was 20%. For the same molecule, the “fatigue, patients” value ([9]; in vivo) was 46%, the overall response rate ([10]; 10 mg/kg Q2W, 27 evaluable patients) was 18.5% and the “PR, patients” value ([10]; 10 mg/kg Q2W) was 14.8%. The “complete response (CR), patients” value ([10]; 10 mg/kg Q2W) was 3.7%, the “progressive disease (PD), patients” value ([10]; 10 mg/kg Q2W) was 48.1% and the “Grade ≥3 AEs, patients” value ([10]; five patients) was 15.6%. The “median DoR” value ([10]; in vivo) was “not yet reached” and the “median time to response” value ([10]; range: 7.3-32.4 weeks) was 17.9 weeks.

For “recombinant TGFβ1: recombinant human TGF-β1 (CHO cell derived)”, the PERK/eIF2α/ATF4/ATF3 axis [11] was “induced the PERK/eIF2α/ATF4/ATF3 axis”.
